Assay results from patent publication US20050107450A1, “Dosing regimen for ppar-gamma activators” (priority 2001, published 2005).
Read-outs that look alike come from different tables or passages of the source.

Legend:
ZDF rats = details: for heart weight/body weight ratio versus normal range: literature normal 0.23 (0.19-0.25); for rats with continued glycemic control (non-fasted plasma glucose less than 250 mg/dl): five weeks, of 8 rats
Description: Less Than Daily Dosing with PPAR-gamma Activator
Three groups of 8 plasma glucose-matched ZDF rats with non-fasted glucose values greater than 250 mg/dl were dosed with PPAR-gamma activator. During the study plasma glucose and serum albumin were measured weekly, HbA1c was measured every other week, and heart weights and body weights were measured terminally. Reduction of plasma glucose and HbA1c are markers for anti-diabetic efficacy (glycemic control). Decreased plasma albumin concentration is a marker for plasma volume expansion or hemodilution. The heart weight-to-body weight ratio is a marker for increased cardiac output secondary to volume expansion.
All three groups were initially dosed with PPAR-gamma activator for one week at 5 mg/kg twice daily, in order to achieve glycemic control as shown by plasma glucose less than 250 mg/dl, and volume expansion as shown by reduced serum albumin.
Following the first week one group (Group BID) was continued on the daily dosing regimen while the other two were moved to less than daily dosing. Group BID continued to be dosed at 5 mg/kg twice daily, Group MWF was dosed at 10 mg/kg per day three times weekly (Monday/Wednesday/Friday), and Group MF was dosed at 10 mg/kg per day twice weekly (Monday/Friday). These three dosing regimens were continued for five weeks.

[1] = tested on: Zucker Diabetic Fatty (ZDF) rats
Description: Model of PPAR-Gamma Activator Induced Efficacy/Glycemic Control
Two glucose-matched groups (n=6/group) of Zucker Diabetic Fatty (ZDF) rats, 7-8 weeks of age, were treated with vehicle (n-methylglucamine, 0.05M, 1 ml/kg, p.o.) or PPAR-gamma activator (5 mg/kg, bid).

[2] = tested on: Normal Han Wistar female adult rats; assay: Study 2: rat model of PPAR-gamma activator induced cardiovascular changes leading to fluid retention and edema; format: in vivo
Description: Rat Model of PPAR-Gamma Activator Induced Cardiovascular Changes Leading to Fluid Retention and Edema
Normal Han Wistar female adult rats were chronically instrumented for measurement of cardiac output, blood pressure and total peripheral resistance and orally dosed (8 mg/kg, bid) with PPAR-gamma activator or vehicle (PEG400, 1 ml/kg) for 10 days. Data were collected for 7 days prior to the start of dosing, for 10 days of dosing, and for 7 days after discontinuation of dosing. […] The decrease in total peripheral resistance is believed to be the initial pharmacodynamic effect of PPAR-gamma activators leading to fluid retention and edema.

[3] = tested on: Normal Han Wistar female adult rats; assay: Study 1: rat model of PPAR-gamma activator induced fluid retention/edema; format: in vivo; details: 8 mg/kg bid oral, 21 days, compared with vehicle treated control rats
Description: Rat Model of PPAR-Gamma Activator Induced Fluid Retention/Edema
Normal Han Wistar female adult rats were housed in metabolic cages and orally dosed (8 mg/kg, bid) with PPAR-gamma activator or vehicle (PEG400, 1 ml/kg) for 21 days. Electrolyte and water balance, plasma volume, hematocrit, and interstitial fluid volume were measured. […] In addition, there was a 50% increase in interstitial fluid volume, correlating to an edematous state.

[4] = after dosing was discontinued (10 days of 8 mg/kg bid)

- serum albumin concentration (ZDF rats; after initial week of 5 mg/kg twice daily, all rats, pre-treatment 3.8 gm/dl): 3.5 gm/dl
- hematocrit, end-of-treatment value ([1]; 5 mg/kg bid, four weeks): 47%
- time for hematocrit to return to control value ([1]; after discontinuation of 5 mg/kg bid): ≤ 3 days
- hematocrit after discontinuation (control value) ([1]; within 3 days after discontinuation of 5 mg/kg bid): 52%
- decrease in hematocrit [3]: 6%
- electrolyte and water retention [3]: sustained increase
- increase in interstitial fluid volume [3]: 50%
- increase in plasma volume [3]: 6%
SMILES: Cc1oc(-c2ccccc2)nc1CCOc1ccc(C[C@H](Nc2ccccc2C(=O)c2ccccc2)C(=O)O)cc1 [GI262570, farglitazar]
- heart weight/body weight ratio versus normal range (ZDF rats; BID dose group): increased beyond the normal range
- increase in terminal heart weight to body weight ratio (ZDF rats; BID group compared to the MWF and MF dose groups): 13%
- serum albumin concentration versus pre-treatment baseline (ZDF rats; BID group, throughout dosing): remained below the pre-treatment baseline value
- rats with continued glycemic control (non-fasted plasma glucose less than 250 mg/dl) (ZDF rats; Group BID, 5 mg/kg twice daily): 8
- rats with continued glycemic control (non-fasted plasma glucose less than 250 mg/dl) (ZDF rats; Group MF, 10 mg/kg per day twice weekly): 5
- rats with continued glycemic control (non-fasted plasma glucose less than 250 mg/dl) (ZDF rats; Group MWF, 10 mg/kg per day three times weekly): 6
- plasma glucose during the last two weeks of study (ZDF rats; MWF and MF dose groups (11 responding rats) versus BID, still well below pre-dosing levels): slightly higher
- heart weight/body weight ratio versus normal range (ZDF rats; MWF and MF dose groups): within normal ranges
- serum albumin concentration versus pre-treatment baseline (ZDF rats; MWF and MF groups, by day 14 of reduced frequency dosing): returned to and remained at pre-treatment baseline values
- mean non-fasted plasma glucose (ZDF rats; after initial week of 5 mg/kg twice daily, all rats, pre-treatment 321 mg/dl): 138 mg/dL
- HbA1c (ZDF rats; all 19 animals with glycemic control (BID, MWF, MF groups)): below 6%
- average non-fasted plasma glucose ([1]; 5 mg/kg bid, after four weeks, at the time dosing was discontinued, vehicle 464 mg/dl): 154 mg/dL
- fluid status of treated rats ([1]; 5 mg/kg bid, after four weeks, n=6): volume expanded and two were overtly edematous
- average plasma glucose ([1]; 10 days after discontinuation of 5 mg/kg bid treatment, vehicle 462 mg/dl): 175 mg/dL
- onset of change in total peripheral resistance and cardiac output after the initial dose ([2]; 8 mg/kg bid oral): within six hours
- time at which total peripheral resistance and cardiac output changes reached steady state ([2]; 8 mg/kg bid oral): by treatment day four
- cardiac output ([2]; 8 mg/kg bid oral, 10 days): increased
- total peripheral resistance ([2]; 8 mg/kg bid oral, 10 days): decreased
- full recovery of total peripheral resistance and cardiac output [2, 4]: after four days
- time until total peripheral resistance and cardiac output began to return toward control values [2, 4]: ≤ 24 h
